From patent publication US20130040331A1, “LABEL-FREE METHODS RELATED TO hERG POTASSIUM ION [sequence]” (CORNING INCORPORATED, priority 2009, published 2013)

Assays:
[1] = tested on: mallotoxin DMR signal in HT29 cells; experiment: DMR modulation index against the mallotoxin DMR signal in HT29 cells; format: cell-based, human
Excerpt: A “molecule modulation index” or like terms is an index to display the ability of the molecule to modulate the biosensor output signals of the panels of markers acting on the panel of cells. The modulation index is generated by normalizing a specific biosensor output signal parameter of a response of a cell upon stimulation with a marker in the presence of a molecule against that in the absence of any molecule.
(§1) Epic® wavelength interrogation system (Corning Inc., Corning, N.Y.) was used for whole cell sensing. This system consists of a temperature-control unit, an optical detection unit, and an on-board liquid handling unit with robotics. The detection unit is centered on integrated fiber optics, and enables kinetic measures of cellular responses with a time interval of ˜15 sec.
(§2) Cells were plated in 384-well Epic® cell culture treated plate (Corning Cat#5040) 16-20 hours before assay (15000 cells/well for HEK293 and HEK-hERG cells, 30000 cells/well for HT29 cells). For both HEK-hERG and its parental HEK293 cells, each well was coated with 10 μl 5 μg/ml fibronectin. One hour before assay, cells were washed twice on a BioTek ELx405 Select washer with Hank's Balanced Salt Solution (HBSS) containing 20 mM Hepes. Cells were incubated in 40 μl/well HBSS at 28° C. inside the Epic system for one hour. For each assay, a 2-min baseline was initiated, followed by addition of 10 μl compound solutions (5×) and the cell responses were recorded continuously for one hour.
All studies were carried out at a controlled temperature (28° C.). At least two independent sets of experiments, each with at least three replicates, were performed. […] All dose-dependent responses were analyzed using non-linear regression method with the GraphPad Prism 5.
The DMR modulation index was generated by normalizing the mallotoxin DMR signal in either cell line in the presence of compound […] to its corresponding DMR signal in the absence of the compound, and the percentage of modulation was based on the amplitude of the mallotoxin DMR signal at a specific time (−18 min after stimulation for HEK-hERG cells, and ˜50 min after stimulation for HT29 cells, respectively). Mallotoxin is known to display polypharmacology. It is also known to be a protein kinase C (PKC) inhibitor; and PKC is a downstream signaling component of hERG activation. Thus, it would be difficult or almost impossible to assign the mode(s) of action of mallotoxin to be a hERG activator when either cell line is individually assayed with the label-free biosensor (i.e., Epic® system). […] However, combining the primary DMR profiles of a compound across the three cell lines tested with the modulation index of the compound against the mallotoxin responses in both HT29 and […] cells can correctly identify whether the compound is a hERG activator or not. The results shown in FIG. 1 indicate that indeed mallotoxin is a hERG activator; and the activation of hERG can result in detectable biosensor responses in the two hERG expressing cell lines.

hERG channel [2] = target: T1, hERG channel (Homo sapiens, UniProt Q12809); settings: oocytes, cited from earlier work
HEK293 cells = experiment: Label-free RWG biosensor (Epic) DMR assay, agonism mode, native HEK293 cells without hERG; format: cell-based, human; settings: compound at 16 micromolar
Description: as §1, §2
All studies were carried out at a controlled temperature (28° C.). At least two independent sets of experiments, each with at least three replicates, were performed. […] All dose-dependent responses were analyzed using non-linear regression method with the GraphPad Prism 5. […]

HEK-hERG cells = format: cell-based, human; settings: microscopic imaging, data not shown
Description: To confirm these findings, several follow-up studies were carried out.

hERG channel [3] = target: T1, hERG channel; settings: 10 micromolar; cited from earlier work

T1 sequence (Q12809 whole entry): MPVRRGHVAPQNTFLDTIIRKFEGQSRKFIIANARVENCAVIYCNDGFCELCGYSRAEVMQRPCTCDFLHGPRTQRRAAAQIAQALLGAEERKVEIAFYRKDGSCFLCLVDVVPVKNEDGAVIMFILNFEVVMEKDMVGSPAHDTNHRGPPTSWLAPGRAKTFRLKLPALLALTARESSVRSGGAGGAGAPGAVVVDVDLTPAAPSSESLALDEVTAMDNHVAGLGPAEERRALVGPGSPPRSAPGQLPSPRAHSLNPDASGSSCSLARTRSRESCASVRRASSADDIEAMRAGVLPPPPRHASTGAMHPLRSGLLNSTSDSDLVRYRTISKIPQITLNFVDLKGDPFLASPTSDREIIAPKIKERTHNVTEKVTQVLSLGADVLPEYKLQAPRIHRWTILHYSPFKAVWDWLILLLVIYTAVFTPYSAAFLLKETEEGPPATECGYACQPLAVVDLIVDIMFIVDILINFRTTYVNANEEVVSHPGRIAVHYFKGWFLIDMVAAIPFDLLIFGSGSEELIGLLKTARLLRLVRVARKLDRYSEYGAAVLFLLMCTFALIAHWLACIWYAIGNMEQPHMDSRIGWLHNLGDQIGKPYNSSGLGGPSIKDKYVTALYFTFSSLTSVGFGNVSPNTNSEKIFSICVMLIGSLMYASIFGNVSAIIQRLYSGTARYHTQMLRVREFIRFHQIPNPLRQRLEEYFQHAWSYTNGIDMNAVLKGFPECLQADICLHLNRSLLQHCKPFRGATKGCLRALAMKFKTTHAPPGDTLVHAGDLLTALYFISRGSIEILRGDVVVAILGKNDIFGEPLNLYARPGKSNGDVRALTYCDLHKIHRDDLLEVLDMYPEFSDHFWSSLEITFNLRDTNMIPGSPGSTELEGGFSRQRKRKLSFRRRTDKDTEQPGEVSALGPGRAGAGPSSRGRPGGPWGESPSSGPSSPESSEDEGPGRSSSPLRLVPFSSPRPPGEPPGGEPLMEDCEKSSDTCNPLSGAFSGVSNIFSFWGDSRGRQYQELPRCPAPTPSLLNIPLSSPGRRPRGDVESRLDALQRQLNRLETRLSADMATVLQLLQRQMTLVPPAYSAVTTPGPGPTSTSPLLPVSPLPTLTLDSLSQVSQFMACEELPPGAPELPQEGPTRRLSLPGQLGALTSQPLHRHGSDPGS

Question: Which “modulation index against mallotoxin in HT29 cells” value ([1]; compound 10 micromolar, mallotoxin 16 micromolar, amplitude ~50 min after stimulation) does the source give for O=C(O)c1ccccc1Nc1cccc(C(F)(F)F)c1 [flufenamic acid] here?
Answer: −90%

Question: And the “modulation of the mallotoxin DMR signal in HT29 cells” value ([1]; compound at 10 micromolar, mallotoxin 16 micromolar)?
Answer: selectively attenuated

Question: And the “amplitude of outward currents evoked by depolarizing pulses” value (hERG channel [2]; 100 to 500 μM)?
Answer: enhanced the amplitude of outward currents

Question: What about the “activation and deactivation rate of hERG channels” value (hERG channel [2]) of the same compound?
Answer: accelerated the activation rate of hERG channels and decelerated their deactivation

Question: Which results are given for CC(=O)c1c(O)c(C)c(O)c(Cc2c(O)c3c(c(C(=O)/C=C/c4ccccc4)c2O)OC(C)(C)C=C3)c1O [mallotoxin]?
Answer: DMR signal in HEK293 cells (HEK293 cells): net-zero DMR signal; modulation of the mallotoxin DMR signal in HT29 cells ([1]; pretreatment with 16 micromolar compound, then 16 micromolar mallotoxin): completely caused the desensitization; cell toxicity at high doses (HEK-hERG cells): caused cell apoptosis; shift of half maximal activation voltage (V1/2) to the hyperpolarizing direction (hERG channel [3]): more than 25 mV
